# Laboratory results: ChEMBL document CHEMBL3351493, “Beta-aminoketones as prodrugs for selective irreversible inhibitors of type-1 methionine aminopeptidases” (Bioorg Med Chem Lett, 2014)
# pIC50: −log10 of the molar value. Calls of active or inactive are those of the source. No cut-off for these calls is given here.
# Columns and labels:
# [1] = molecular target: T1, Methionine aminopeptidase (Escherichia coli K-12, UniProt P0AE18); assay: Inhibition of C-terminal poly-His-tagged Escherichia coli MetAP expressed in Escherichia coli BL21(DE3) incubated for 30 mins before MGMM substrate addition by fluorescence assay; conditions: for pIC50: read-out: IC50
# T1 sequence (P0AE18 whole entry): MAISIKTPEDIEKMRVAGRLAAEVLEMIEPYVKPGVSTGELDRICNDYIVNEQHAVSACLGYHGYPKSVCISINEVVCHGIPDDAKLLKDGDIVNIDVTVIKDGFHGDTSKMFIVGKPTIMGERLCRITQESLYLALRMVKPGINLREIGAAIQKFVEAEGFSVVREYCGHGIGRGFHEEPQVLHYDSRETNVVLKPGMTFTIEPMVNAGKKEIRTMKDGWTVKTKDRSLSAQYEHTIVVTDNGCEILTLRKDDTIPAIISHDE
# [2] = tested on: A-431; assay: Cytotoxicity against human A431 cells at 1.6 to 100 ug/ml after 72 hrs by crystal violet assay; format: functional, cell-based
# [3] = Half life assessed as decomposition into amines and unsaturated ketones at 250 uM in 50 mM Tris/maleate pH 7.5 buffer by HPLC method; format: physicochemical; conditions: for t1/2: buffer, pH 7.5, 250 µM; for half-life at 250 µM: Tris/maleate buffer, pH 7.5
# [4] = molecular target: Methionine aminopeptidase (Staphylococcus aureus (strain COL), UniProt Q5HEN6); assay: Inhibition of N-terminal poly-His-tagged Staphylococcus aureus COL MetAP expressed in Escherichia coli BL21(DE3) incubated for 30 mins before MGMM substrate addition by fluorescence assay; parameters: species or system Staphylococcus aureus subsp. aureus COL
# [5] = tested on: Escherichia coli; assay: Antimicrobial activity against Escherichia coli BL21(DE3) assessed as inhibition of bacterial growth at 200 uM incubated at 37 degC for 7 hrs; format: functional; conditions: for inhibition at 200 µM: BL21-DE3, 7 h
# [6] = tested on: CAPAN-1; assay: Cytotoxicity against human Capan1 cells at 1.6 to 100 ug/ml after 72 hrs by crystal violet assay; format: functional, cell-based
# [7] = molecular target: Methionine aminopeptidase 1 (Homo sapiens, UniProt P53582); assay: Inhibition of N-terminal poly-His-tagged human MetAP-1 expressed in Escherichia coli BL21(DE3) incubated for 30 mins before MGMM substrate addition by fluorescence assay
# [8] = tested on: MeWo; assay: Cytotoxicity against human MeWo cells at 1.6 to 100 ug/ml after 72 hrs by crystal violet assay; format: functional, cell-based
# [9] = tested on: SW707; assay: Cytotoxicity against human SW707 cells at 1.6 to 100 ug/ml after 72 hrs by crystal violet assay; format: functional, cell-based
# [10] = Cytotoxicity against human Flow 2002 cells at 1.6 to 100 ug/ml after 72 hrs by crystal violet assay; format: cell-based; conditions: flow 2002, 72 h
# [11] = tested on: Calu-6; assay: Cytotoxicity against human Calu6 cells at 1.6 to 100 ug/ml after 72 hrs by crystal violet assay; format: functional, cell-based
# [12] = tested on: A 172; assay: Cytotoxicity against human A172 cells at 1.6 to 100 ug/ml after 72 hrs by crystal violet assay; format: functional, cell-based
# [13] = tested on: Ca-Ski; assay: Cytotoxicity against human CaSki cells at 1.6 to 100 ug/ml after 72 hrs by crystal violet assay; format: functional, cell-based
# [14] = molecular target: Methionine aminopeptidase 2 (Homo sapiens, UniProt P50579); conditions: sf9
# Description: Inhibition of human MetAP-2 expressed in Sf9 cells incubated for 60 mins before MGMM substrate addition by fluorescence assay
# [15] = tested on: HaCaT; assay: Cytotoxicity against human HaCaT cells at 1.6 to 100 ug/ml after 72 hrs by crystal violet assay; format: cell-based
# [16] = tested on: BT-474; assay: Cytotoxicity against human BT474 cells at 1.6 to 100 ug/ml after 72 hrs by crystal violet assay; format: functional, cell-based
# Sequence of Methionine aminopeptidase (Staphylococcus aureus (strain COL), UniProt Q5HEN6) (Q5HEN6 whole entry): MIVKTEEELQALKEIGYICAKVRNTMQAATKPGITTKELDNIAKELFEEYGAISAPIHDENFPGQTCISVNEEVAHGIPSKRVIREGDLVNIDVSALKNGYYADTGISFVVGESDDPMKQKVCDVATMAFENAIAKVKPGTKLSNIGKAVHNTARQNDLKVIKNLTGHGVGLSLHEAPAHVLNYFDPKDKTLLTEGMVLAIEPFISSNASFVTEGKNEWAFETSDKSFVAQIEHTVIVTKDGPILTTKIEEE
# Sequence of Methionine aminopeptidase 2 (P50579 whole entry): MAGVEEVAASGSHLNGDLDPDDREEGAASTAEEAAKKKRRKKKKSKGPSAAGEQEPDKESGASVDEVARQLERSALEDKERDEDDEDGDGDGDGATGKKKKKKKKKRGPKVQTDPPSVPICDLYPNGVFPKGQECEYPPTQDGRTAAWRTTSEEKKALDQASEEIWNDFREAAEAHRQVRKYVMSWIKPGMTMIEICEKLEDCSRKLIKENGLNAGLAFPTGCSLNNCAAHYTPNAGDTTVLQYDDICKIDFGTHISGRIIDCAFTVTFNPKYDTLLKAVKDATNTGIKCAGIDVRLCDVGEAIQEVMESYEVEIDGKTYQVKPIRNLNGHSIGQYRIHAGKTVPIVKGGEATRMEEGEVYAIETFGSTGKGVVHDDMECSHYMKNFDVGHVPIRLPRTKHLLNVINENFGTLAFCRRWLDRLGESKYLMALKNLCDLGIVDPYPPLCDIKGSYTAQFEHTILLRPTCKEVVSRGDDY
SMILES,IC50 [1],Activity [2],t1/2 [3],IC50 [4],inhibition [5],Activity [6],IC50 [7],Activity [8],Activity [9],Activity [10],Activity [11],Activity [12],Activity [13],IC50 [14],Activity [15],Activity [16],pIC50 [1],half-life at 250 µM [3] [h],inhibition at 200 µM [5] [%],pIC50 ([4]; read-out: IC50)
CN(C)CC1(C)Cc2ccccc2C1=O.Cl (stereo not drawn),Not Active,inactive,Stable,Not Active,inactive,inactive,Not Active,inactive,inactive,Non-toxic,inactive,inactive,inactive,Not Active,Non-toxic,inactive,–,–,–,–
CN(C)CC1CCc2ccccc2C1=O.Cl (stereo not drawn),–,Active,–,Not Active,–,Active,Not Active,Active,Active,Toxic,Active,Active,Active,Not Active,Toxic,Active,5.08,5.78,68,–
COc1cccc(C(=O)CCN2CCCCC2)c1.Cl,Not Active,Active,Stable,Not Active,inactive,Active,Not Active,Active,Active,Toxic,Active,Active,Active,Not Active,Toxic,Active,–,–,–,–
CN(C)CC1CCc2sccc2C1=O.Cl (stereo not drawn),–,Active,–,Not Active,–,Active,Not Active,Active,Active,Toxic,Active,Active,Active,Not Active,Toxic,Active,4.22,116,10,–
Cl.O=C(CCN1CCCCC1)c1ccccc1,Not Active,Active,Stable,Not Active,inactive,Active,Not Active,Active,Active,Toxic,Active,Active,Active,Not Active,Toxic,Active,–,–,–,–
CC1CC(CN(C)C)C(=O)c2ccccc21.Cl (stereo not drawn),–,Active,–,Not Active,–,Active,Not Active,Active,Active,Toxic,Active,Active,Active,Not Active,Toxic,Active,5.42,4.82,75,–
Cl.O=C1c2ccccc2CCC1CN1CCCCC1 (stereo not drawn),–,Active,–,Not Active,–,Active,Not Active,Active,Active,Toxic,Active,Active,Active,Not Active,Toxic,Active,5.04,14.4,28,–
CN(C)CCC(=O)c1ccccc1.Cl,Not Active,Active,–,Not Active,inactive,Active,Not Active,Active,Active,Toxic,Active,Active,Active,Not Active,Toxic,Active,–,–,–,–
COc1cc2c(cc1OC)C(=O)C(CN(C)C)C2.Cl (stereo not drawn),–,Active,–,–,–,Active,Not Active,Active,Active,Toxic,Active,Active,Active,Not Active,Toxic,Active,5.77,0.933,17,4.72
COc1ccc2c(c1)C(=O)C(CN1CCCCC1)CC2.Cl (stereo not drawn),–,Active,–,Not Active,–,Active,Not Active,Active,Active,Toxic,Active,Active,Active,Not Active,Toxic,Active,5.43,10.5,30,–
COc1cccc(C(=O)CCN(C)C)c1.Cl,Not Active,Active,Stable,Not Active,inactive,Active,Not Active,Active,Active,Toxic,Active,Active,Active,Not Active,Toxic,Active,–,–,–,–
COc1ccc(C(=O)CCN2CCCCC2)cc1.Cl,Not Active,Active,–,Not Active,inactive,Active,Not Active,Active,Active,Toxic,Active,Active,Active,Not Active,Toxic,Active,–,–,–,–
COc1ccc2c(c1)C(=O)C(CN(C)C)CC2.Cl (stereo not drawn),–,Active,–,Not Active,–,Active,Not Active,Active,Active,Toxic,Active,Active,Active,Not Active,Toxic,Active,5.68,6.8,49,–
CCC(CN(C)C)C(=O)c1ccccc1.Cl (stereo not drawn),Not Active,Active,Stable,Not Active,inactive,Active,Not Active,Active,Active,Toxic,Active,Active,Active,Not Active,Toxic,Active,–,–,–,–
Cc1cc(C)c2c(c1)C(=O)C(CN(C)C)CC2.Cl (stereo not drawn),–,Active,–,Not Active,–,Active,Not Active,Active,Active,Toxic,Active,Active,Active,Not Active,Toxic,Active,4.34,14.4,56,–
